This is an account of results in patent publication US20240109865A1, “INDAZOLE COMPOUNDS AS KINASE INHIBITORS” (TYRA BIOSCIENCES, INC., priority 2020, published 2024).

Test [1] has as its target FGFR3-BAIAP2L1 Ba/F3 cells (Homo sapiens, UniProt P22607). In words: Ba/F3 cell viability assay (CellTiter-Glo 2.0), FGFR3-BAIAP2L1 Ba/F3. The following applies: for Ba/F3 FGFR1/FGFR3 Selectivity: FGFR3 > FGFR1 selectivity ratio in Ba/F3 FGFR fusion cell based assays; for IC50: read-out: Ba/F3 Cells FGFR3 (IC50 nM), FGFR3-BAIAP2L1 Ba/F3 cells, 48 hours, Cell Titer Glo 2.0. Format: cell-based. An excerpt:
(§1) Experimental Purpose: Recombinant kinase fusions are transduced into parental Ba/F3, which becomes dependent upon this constitutive kinase activity for IL3-independent survival. Inhibition of kinase activity leads to cell death, which is monitored using CellTiter-Glo® 2.0 (Promega) which measures intracellular ATP concentration that in turn serves as a marker for viability. FGFR1-BCR Ba/F3 and FGFR3-BAIAP2L1 Ba/F3 were obtained from Advanced Cellular Dynamics (Seattle, WA)
(§2) Cell Viability Assay Procedure: Cell Titer-Glo® 2.0 Luminescent cell viability assay reagent was purchased from Promega (Madison, WI). FGFR1-BCR Ba/F3 and FGFR3-BAIAP2L1 Ba/F3 cells were cultured in RPMI1640 media supplemented with 10% fetal bovine serum. Cultures were maintained at 37° C. in a humidified atmosphere of 5% C02 and 95% air.
(§3) Cells were plated in 96-well clear bottom/white plates (Corning #3903) at 10,000 cells/well in 100 μl of media, incubated overnight. The next day, test compound DMSO stock solutions were made at 10 mM and 2 μM final concentration. Compounds were then added to cells in a 9-dose, 10-fold dilution series starting at 30 μM with an HP 300e Digital Dispenser (each dose was applied in triplicate). DMSO was backfilled to each well up to 301 nL total volume of test compound+DMSO, and a total of 301 nL DMSO was added to a control/no test compound well in triplicate. The cells in cell culture plates were incubated with the compounds at 37° C. and 5% C02 for 48 hours. Then 50 μl of Cell Titer Glo 2.0 reagent was added to each well of the cell culture plates. The contents were covered from light and mixed on an orbital shaker at room temperature for 10 min. Luminescence was recorded by a Synergy H1 Microplate Reader (Biotek, Winooski, VT). Cells were assessed as a percentage of DMSO only treated control cells. Curves were plotted and IC50 values were calculated using the GraphPad Prism 8 program based on a sigmoidal dose-response equation (4 parameter).
In general terms: In ATP-based viability assays light output follows the ATP content of the culture.

The target of test [2] is FGFR1-BCR Ba/F3 cells (Homo sapiens, UniProt P11362). Briefly: Ba/F3 cell viability assay (CellTiter-Glo 2.0), FGFR1-BCR Ba/F3. Format: cell-based. The following applies: read-out: Ba/F3 Cells FGFR1 (IC50 nM), 48 hours, Cell Titer Glo 2.0.
Excerpt: as §1, §2, §3

Test [3] has as its target FGFR1 (Homo sapiens (Human), UniProt P11362). In words: Kinase assay, binding constants (Kd), kinase-tagged T7 phage, qPCR. In a few lines:
(§4)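 Kinase-tagged T7 phage (grown in BL21-derived E. coli) competed with test compound for immobilized biotinylated ligand on streptavidin beads. Kds came from an 11-point 3-fold dilution series at 0.9% final DMSO. Bound kinase was eluted with non-biotinylated ligand and quantified by qPCR, with Hill slope fixed at −1.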
On the technique in general: Real-time PCR tracks product formation cycle by cycle.

The target in test [4] is FGFR2 (Homo sapiens (Human), UniProt P21802). The test is described as above. The gist of the method: as §4
In test [5] the target is FGFR3 (Homo sapiens (Human), UniProt P22607). Described as above. The gist of the method:
as §4

The target in test [6] is FGFR3 (V555M) (Homo sapiens (Human), UniProt P22607, V555M). The description is as above. The following applies: V555M mutant. The gist of the method:
as §4

Test [7] addresses FGFR4 (Homo sapiens (Human), UniProt P22455). The test is described as above. In a few lines: as §4

FGFR3-BAIAP2L1 Ba/F3 cells, sequence (P22607 23-806 limits assumed, change not shown): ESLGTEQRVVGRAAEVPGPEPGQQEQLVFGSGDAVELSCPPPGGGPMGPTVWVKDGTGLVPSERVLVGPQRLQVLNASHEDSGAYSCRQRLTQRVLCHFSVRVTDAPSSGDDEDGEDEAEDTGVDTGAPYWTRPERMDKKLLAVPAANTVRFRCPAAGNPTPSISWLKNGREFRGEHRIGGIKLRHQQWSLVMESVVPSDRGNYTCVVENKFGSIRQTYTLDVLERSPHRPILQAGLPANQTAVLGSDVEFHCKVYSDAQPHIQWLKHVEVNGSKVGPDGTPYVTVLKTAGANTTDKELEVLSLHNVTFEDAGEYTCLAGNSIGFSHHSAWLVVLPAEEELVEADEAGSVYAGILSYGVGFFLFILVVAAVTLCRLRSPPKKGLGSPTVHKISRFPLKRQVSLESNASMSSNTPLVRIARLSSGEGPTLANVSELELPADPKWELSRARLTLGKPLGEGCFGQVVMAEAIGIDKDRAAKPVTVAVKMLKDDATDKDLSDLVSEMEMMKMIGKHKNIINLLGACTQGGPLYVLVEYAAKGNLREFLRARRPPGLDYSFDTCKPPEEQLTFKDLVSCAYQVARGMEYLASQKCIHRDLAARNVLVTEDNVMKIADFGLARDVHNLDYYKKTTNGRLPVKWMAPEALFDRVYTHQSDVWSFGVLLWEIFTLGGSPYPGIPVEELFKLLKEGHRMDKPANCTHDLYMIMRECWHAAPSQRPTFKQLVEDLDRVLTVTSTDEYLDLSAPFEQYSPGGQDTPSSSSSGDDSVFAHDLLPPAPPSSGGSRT
FGFR3, sequence (P22607 23-806): as the sequence (P22607 23-806 limits assumed, change not shown) above
FGFR3 (V555M), sequence (P22607 23-806 V555M): as the sequence (P22607 23-806 limits assumed, change not shown) above, with V533M counted along it
FGFR2, sequence (P21802 22-821): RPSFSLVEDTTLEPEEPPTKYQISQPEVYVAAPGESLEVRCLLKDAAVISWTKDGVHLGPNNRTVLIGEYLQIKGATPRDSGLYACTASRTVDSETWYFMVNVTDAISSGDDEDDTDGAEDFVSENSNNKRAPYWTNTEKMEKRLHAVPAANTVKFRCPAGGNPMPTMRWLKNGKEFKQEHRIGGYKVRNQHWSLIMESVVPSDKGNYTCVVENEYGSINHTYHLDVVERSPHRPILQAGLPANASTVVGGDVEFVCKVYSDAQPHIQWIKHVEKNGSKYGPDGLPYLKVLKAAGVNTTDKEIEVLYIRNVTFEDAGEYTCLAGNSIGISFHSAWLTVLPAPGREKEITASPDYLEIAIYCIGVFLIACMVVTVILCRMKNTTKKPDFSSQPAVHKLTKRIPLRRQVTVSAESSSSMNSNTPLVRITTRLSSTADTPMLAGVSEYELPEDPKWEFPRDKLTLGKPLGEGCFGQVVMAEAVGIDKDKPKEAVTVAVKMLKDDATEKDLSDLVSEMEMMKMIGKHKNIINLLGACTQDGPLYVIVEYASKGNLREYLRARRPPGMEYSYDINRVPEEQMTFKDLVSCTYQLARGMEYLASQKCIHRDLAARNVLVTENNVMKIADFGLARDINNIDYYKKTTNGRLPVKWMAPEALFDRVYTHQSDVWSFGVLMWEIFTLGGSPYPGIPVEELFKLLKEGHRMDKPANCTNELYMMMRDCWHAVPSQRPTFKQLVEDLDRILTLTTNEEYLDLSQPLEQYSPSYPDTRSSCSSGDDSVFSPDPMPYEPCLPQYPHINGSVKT
FGFR1, sequence (P11362 22-822): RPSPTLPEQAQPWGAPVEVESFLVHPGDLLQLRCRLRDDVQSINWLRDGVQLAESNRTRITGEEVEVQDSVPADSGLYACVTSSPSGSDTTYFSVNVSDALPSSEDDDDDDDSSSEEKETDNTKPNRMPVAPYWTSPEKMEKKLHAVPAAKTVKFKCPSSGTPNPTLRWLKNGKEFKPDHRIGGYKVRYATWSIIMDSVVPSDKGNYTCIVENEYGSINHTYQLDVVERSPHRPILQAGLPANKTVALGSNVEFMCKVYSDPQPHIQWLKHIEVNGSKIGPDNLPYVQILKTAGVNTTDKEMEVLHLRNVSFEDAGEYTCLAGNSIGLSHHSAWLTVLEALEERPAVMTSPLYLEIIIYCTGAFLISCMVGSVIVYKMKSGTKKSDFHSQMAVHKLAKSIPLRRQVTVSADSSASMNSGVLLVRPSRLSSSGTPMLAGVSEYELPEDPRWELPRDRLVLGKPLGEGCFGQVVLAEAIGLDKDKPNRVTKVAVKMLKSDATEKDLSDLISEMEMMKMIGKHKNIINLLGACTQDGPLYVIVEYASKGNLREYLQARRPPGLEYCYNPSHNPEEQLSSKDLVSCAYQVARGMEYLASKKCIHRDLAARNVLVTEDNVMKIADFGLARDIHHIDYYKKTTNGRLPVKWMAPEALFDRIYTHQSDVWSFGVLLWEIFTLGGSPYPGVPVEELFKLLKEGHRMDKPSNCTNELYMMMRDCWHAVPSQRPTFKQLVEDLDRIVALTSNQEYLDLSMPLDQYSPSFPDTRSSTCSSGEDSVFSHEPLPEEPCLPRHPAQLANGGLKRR
FGFR1-BCR Ba/F3 cells, sequence (P11362 22-822 limits assumed, change not shown): as the sequence (P11362 22-822) above
FGFR4, sequence (P22455 22-802): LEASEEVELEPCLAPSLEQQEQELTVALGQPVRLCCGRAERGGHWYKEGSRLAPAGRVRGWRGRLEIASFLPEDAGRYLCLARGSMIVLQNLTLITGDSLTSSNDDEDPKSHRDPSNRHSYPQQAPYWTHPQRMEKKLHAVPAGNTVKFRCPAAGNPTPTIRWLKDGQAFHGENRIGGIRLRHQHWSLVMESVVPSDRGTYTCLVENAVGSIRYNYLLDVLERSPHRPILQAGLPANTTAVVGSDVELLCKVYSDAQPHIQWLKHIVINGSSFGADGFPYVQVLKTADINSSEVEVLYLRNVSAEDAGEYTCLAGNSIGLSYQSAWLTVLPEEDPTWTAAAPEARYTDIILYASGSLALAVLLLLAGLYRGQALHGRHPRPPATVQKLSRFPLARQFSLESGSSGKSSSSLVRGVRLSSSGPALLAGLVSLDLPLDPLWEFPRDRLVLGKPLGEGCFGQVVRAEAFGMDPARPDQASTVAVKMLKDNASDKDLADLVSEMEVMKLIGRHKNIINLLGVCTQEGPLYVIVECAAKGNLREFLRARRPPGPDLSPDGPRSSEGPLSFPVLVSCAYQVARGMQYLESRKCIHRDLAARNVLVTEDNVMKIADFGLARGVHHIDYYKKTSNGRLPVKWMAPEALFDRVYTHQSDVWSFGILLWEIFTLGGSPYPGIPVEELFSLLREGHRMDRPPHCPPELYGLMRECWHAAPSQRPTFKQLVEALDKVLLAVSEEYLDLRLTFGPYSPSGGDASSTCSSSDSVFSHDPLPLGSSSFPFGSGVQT

For `COC(=O)N1CCN(c2ccc(-c3n[nH]c4ccc(O[C@H](C)c5c(Cl)cncc5Cl)cc34)cn2)CC1` [Example 7, Methyl 4-[5-[5-[(1R)-1-(3,5-dichloro-4-pyridyl)ethoxy]-1H-indazol-3-yl]-2-pyridyl]piperazine-1-carboxylate], in test [1], the “Ba/F3 FGFR1/FGFR3 Selectivity” value was 15. Also, the IC50 is 20 to 100 nM in test [1] and over 300 nM in test [2]. Also, the dissociation constant (Kd) (as a rule, the free concentration of one partner at which half of the binding sites on the other are occupied at equilibrium, for simple one-to-one binding) was 1 to 20 nM in test [3]; 20 to 100 nM in test [4]; 1 to 20 nM in test [5]; 1 to 20 nM in test [6]; 1 to 20 nM in test [7].
As for `C[C@@H](Oc1ccc2[nH]nc(-c3ccc(Cl)nc3)c2c1)c1c(Cl)cncc1Cl` [Example 18, 3-(6-Chloro-3-pyridyl)-5-[(1R)-1-(3,5-dichloro-4-pyridyl)ethoxy]-1H-indazole], the “Ba/F3 FGFR1/FGFR3 Selectivity” value in test [1] was determined as 21. The IC50 in test [1] was 20 to 100 nM; in test [2], over 300 nM. Besides, the Kd in test [3] fell in the range of 20 to 100 nM; in test [4], 20 to 100 nM; in test [5] it was 1 to 20 nM; in test [6] it was 1 to 20 nM; in test [7], 1 to 20 nM.
As to `C[C@@H](Oc1ccc2[nH]nc(-c3ccc(F)nc3)c2c1)c1c(Cl)cncc1Cl` [Example 25, 5-[(1R)-1-(3,5-Dichloro-4-pyridyl)ethoxy]-3-(6-fluoro-3-pyridyl)-1H-indazole], in test [1], the “Ba/F3 FGFR1/FGFR3 Selectivity” value is 22. The IC50 is 20 to 100 nM in test [1] and over 300 nM in test [2]. In addition, the Kd in test [3] was 20 to 100 nM; in test [4], 20 to 100 nM; in test [5], 1 to 20 nM; in test [6], 1 to 20 nM; in test [7], 20 to 100 nM.
With `C[C@@H](Oc1ccc2[nH]nc(-c3ccc(N4CCCNC(=O)C4)nc3)c2c1)c1c(Cl)cncc1Cl` [Example 35, 4-[5-[5-[(1R)-1-(3,5-dichloro-4-pyridyl)ethoxy]-1H-indazol-3-yl]-2-pyridyl]-1,4-diazepan-2-one], the “Ba/F3 FGFR1/FGFR3 Selectivity” value in test [1] came to 6. For the same molecule, the figures for the IC50 in test [1] and in test [2] were 20 to 100 nM and over 300 nM, respectively. Moreover, the Kd in test [3] was 20 to 100 nM; in test [4], 20 to 100 nM; in test [5], 1 to 20 nM; in test [6], 1 to 20 nM; in test [7], 1 to 20 nM.
On to `C[C@@H](Oc1ccc2[nH]nc(-c3ccc(N4CCNC(=O)C4)nc3)c2c1)c1c(Cl)cncc1Cl` [Example 36, 4-[5-[5-[(1R)-1-(3,5-dichloro-4-pyridyl)ethoxy]-1H-indazol-3-yl]-2-pyridyl]piperazin-2-one], for which, in test [1], the “Ba/F3 FGFR1/FGFR3 Selectivity” value is 23. For the same molecule, the IC50 is 1 to 20 nM in test [1] and 20 to 100 nM in test [2]. In addition, the dissociation constant (Kd) in test [3], in test [4], in test [5], in test [6] and in test [7] was 1 to 20 nM throughout.
For the molecule `C[C@@H](Oc1ccc2[nH]nc(-c3ccc(N4CCNCC4=O)nc3)c2c1)c1c(Cl)cncc1Cl` [Example 37, 1-[5-[5-[(1R)-1-(3,5-dichloro-4-pyridyl)ethoxy]-1H-indazol-3-yl]-2-pyridyl]piperazin-2-one], in test [1], the “Ba/F3 FGFR1/FGFR3 Selectivity” value came out at 12. In addition, the figures for the IC50 in test [1] and in test [2] were 1 to 20 nM and 100 to 300 nM, respectively. Further, the dissociation constant Kd fell in the range of 20 to 100 nM in test [3]; 20 to 100 nM in test [4]; 1 to 20 nM in test [5]; 1 to 20 nM in test [6]; 1 to 20 nM in test [7].
Take `C[C@@H](Oc1ccc2[nH]nc(-c3ccc(N4CCN(C)CC4=O)nc3)c2c1)c1c(Cl)cncc1Cl` [Example 38, 1-[5-[5-[(1R)-1-(3,5-dichloro-4-pyridyl)ethoxy]-1H-indazol-3-yl]-2-pyridyl]-4-methyl-piperazin-2-one]: in test [1], the “Ba/F3 FGFR1/FGFR3 Selectivity” value turned out to be 21. For the same molecule, the figures for the IC50 in test [1] and in test [2] were 1 to 20 nM and 100 to 300 nM, respectively. Moreover, the Kd lay within 20 to 100 nM in test [3]; 20 to 100 nM in test [4]; 1 to 20 nM in test [5]; 1 to 20 nM in test [6]; 1 to 20 nM in test [7].
Take `C[C@@H]1CCN1c1ncc(-c2n[nH]c3cc(Cl)c(O[C@H](C)c4c(Cl)cncc4Cl)cc23)cc1C#N` [Example 374, 5-(6-chloro-5-((R)-1-(3,5-dichloropyridin-4-yl)ethoxy)-1H-indazol-3-yl)-2-((R)-2-methylazetidin-1-yl)nicotinonitrile]: the Kd was over 300 nM in test [3]; over 300 nM in test [4]; 100 to 300 nM in test [5]; 20 to 100 nM in test [6]; 20 to 100 nM in test [7].
`COc1cc2[nH]nc(-c3cnc(N4CC[C@@H]4C)c(S(C)(=O)=O)c3)c2cc1O[C@H](C)c1c(Cl)cncc1Cl` [Example 375, 5-((R)-1-(3,5-dichloropyridin-4-yl)ethoxy)-6-methoxy-3-(6-((S)-2-methylazetidin-1-yl)-5-(methylsulfonyl)pyridin-3-yl)-1H-indazole]: the Kd in test [3] was over 300 nM; in test [4], over 300 nM; in test [5] it was 100 to 300 nM; in test [6] it was 20 to 100 nM; in test [7] it was 1 to 20 nM.
Consider `COc1cc2[nH]nc(-c3cnc(N4CC(C)(C)C4)c(S(C)(=O)=O)c3)c2cc1O[C@H](C)c1c(Cl)cncc1Cl` [Example 376, (R)-5-(1-(3,5-dichloropyridin-4-yl)ethoxy)-3-(6-(3,3-dimethylazetidin-1-yl)-5-(methylsulfonyl)pyridin-3-yl)-6-methoxy-1H-indazole], for which the dissociation constant Kd in test [3] was over 300 nM; in test [4], 100 to 300 nM; in test [5] it was 20 to 100 nM; in test [6], 20 to 100 nM; in test [7] it was 1 to 20 nM.
Take `C[C@@H](Oc1cc2c(-c3cnc(N4CCC4)c(C#N)c3)n[nH]c2cc1Cl)c1c(Cl)cncc1Cl` [Example 377, 2-(azetidin-1-yl)-5-[6-chloro-5-[(1R)-1-(3,5-dichloro-4-pyridyl)ethoxy]-1H-indazol-3-yl]pyridine-3-carbonitrile]: the Kd is over 300 nM in test [3]; over 300 nM in test [4]; 100 to 300 nM in test [5]; 20 to 100 nM in test [6]; 1 to 20 nM in test [7].
Consider `C[C@@H](Oc1cc2c(-c3cnc(N4CC5(CCS(=O)(=O)C5)C4)c(C#N)c3)n[nH]c2cc1F)c1c(Cl)cncc1Cl` [Example 378, 5-[5-[(1R)-1-(3,5-dichloro-4-pyridyl)ethoxy]-6-fluoro-1H-indazol-3-yl]-2-(6,6-dioxo-6λ^6-thia-2-azaspiro[3.4]octan-2-yl)pyridine-3-carbonitrile], for which the Kd in test [3] was 100 to 300 nM; in test [4] it was 20 to 100 nM; in test [5], 1 to 20 nM; in test [6], 1 to 20 nM; in test [7] it was 1 to 20 nM.
In the case of `Cc1ncc(Cl)c([C@@H](C)Oc2cc3c(-c4cnc(N5CC6(C5)CN(S(C)(=O)=O)C6)c(C#N)c4)n[nH]c3cc2F)c1Cl` [Example 379, 5-[5-[(1R)-1-(3,5-dichloro-2-methyl-4-pyridyl)ethoxy]-6-fluoro-1H-indazol-3-yl]-2-(2-methylsulfonyl-2,6-diazaspiro[3.3]heptan-6-yl)pyridine-3-carbonitrile], the Kd was 100 to 300 nM in test [3]; 100 to 300 nM in test [4]; 20 to 100 nM in test [5]; 1 to 20 nM in test [6]; 1 to 20 nM in test [7].
Turning to `C[C@@H](Oc1cc2c(-c3cnc(N4CC5(CCCN(S(C)(=O)=O)C5)C4)c(C#N)c3)n[nH]c2cc1F)c1c(Cl)cncc1Cl` [Example 380, 5-[5-[(1R)-1-(3,5-dichloro-4-pyridyl)ethoxy]-6-fluoro-1H-indazol-3-yl]-2-(8-methylsulfonyl-2,8-diazaspiro[3.5]nonan-2-yl)pyridine-3-carbonitrile], the dissociation constant (Kd) is 100 to 300 nM in test [3]; over 300 nM in test [4]; 20 to 100 nM in test [5]; 20 to 100 nM in test [6]; 1 to 20 nM in test [7].
